Laboratory results from patent US5906922A, “Delivery of nucleic acids” (Commonwealth Scientific and Industrial Research Organisation, priority 1994, dated 1999).
Where a SMILES comes first, the peptide text is derived from it. The star is where a group is joined. NHC(CH2O-Palmitoyl)3 = CCCCCCCCCCCCCCCC(=O)OCC(COC(=O)CCCCCCCCCCCCCCC)(COC(=O)CCCCCCCCCCCCCCC)N*; X5 = CCCCCCCCCCCCCCCC(=O)OCC(CO)(COC(=O)CCCCCCCCCCCCCCC)N*; X1 = CCCCCCCCCCCCCCCC(=O)OCC(CO)(CO)N*; NHC(CH2OH)3 = OCC(CO)(CO)N*

Assays:
[1] = system: Cos 1 cells; experiment: Transfection of pSVLCAT, CAT assay, Cos 1; format: cell-based, African Green Monkey; settings: for CAT activity (mean): 25 μl lysate, 135 min 37° C.; for transfection, number of palmitates: R1-R4 experiment a, Cos 1, K2 A linker; for Transfection (CAT): Table 1, Cos 1, optimised level of agent
Method: To test the transfection properties of the lead compound K3ATP3 (VerafectinA3), whole uncut plasmid carrying the gene encoding CAT (chloramphenicol acetyl transferase) under the control of the SV40 late promoter, pSVLCAT (Cameron, F. H. and Jennings, P. A. (1989) PNAS 86, 9139-9143) was mixed with the test agent and put on Cos 1 cells under various conditions. After 48 hours of culture the level of secreted CAT was assayed from the culture medium.
Solution I: 1 μg Plasmid DNA in 500 μl Dulbeccos Modified Eagles Medium (DME)
Solution II: 0-20 μl VerafectinA3 (2.5 mg/ml 25% DMSO) in 500 μl DME, Vortex
Combine solution I and II, vortex briefly and incubate at room temperature for 10 min.
Add mix to washed cells in 60 mm tissue culture dishes (seeded 0.5×10^6 /dish previous day) for 6 hrs at 37° C., 5% C02. Add 2 ml DME+10% FCS for remainder of 48 hrs. Assay CAT levels in tissue culture medium (Sleigh, M. J. (1986) Anal. Biochem. 156.251-256).
a--Compare VerafectinA3 dissolved in DMSO or ethanol.
b--Compare VerafectinA3 on cells 6 hrs to overnight. VerafectinA3 at 10 mg/ml in 100% solvent was diluted to 2.5 mg/ml with water.
Transfection was carried out as for experiment 1. VerafectinA3 was left in contact with the cells for varying times.
Protocol was the same for the Verafectins as described above. Lipofectamine protocol was according to manufacturers instructions. Cos 1 cells were seeded at 5×10^5 /60 mm dish and adhered overnight in DME with 10% FCS.
Solution A: 0.5 μg pSVLCAT/60 mm dish.
Solution B: Lipofectamine 10 and 15 μl 2 mg/ml (mixed formulation 3:1 with DOPE).
OR; VerafectinA3 and VerafectinG2 20 μl 2 mM (2.8 and 2.3 mg/ml respectively) stock.
OR; VerafectinG2 was also tested with an equimolar amount of DOPE. VerafectinG2 and DOPE were mixed in DDME and vortexed for 30 seconds before use. Solutions A and B were combined before overlaying on washed cells.
The serum free incubation period in the presence of test agents and DNA was 6 hrs, then 1 ml DME+10% FCS was added. At 24 hours medium was changed to 2 ml fresh DME+10% FCS until harvest at 48 hrs.
(§1) Cell lines Cos 1 or CHO were transfected with 0.5 μg of pSVLCAT or 2 μg of pPGKlacZ plasmid using a range of concentrations of each transfection compound. The optimal concentration of compound, that is the concentration giving the highest level of CAT at 48 hours or the greatest percentage of lac z (β-galactosidase) staining cells at 24 hours was used to collate data for Table 1. As all compounds were not tested in a single experiment, absolute figures indicating transfection were not used. Rather, symbols are used to indicate the transfection efficiency relative to Lipofectamine (BRL), which was included as a control in all experiments. Table 1 thus indicates the relative efficiencies of a number of compounds in mediating the transfection of at least one cell type.
(§2) All test lipopeptide reagents were originally dissolved at 10 mM in 75% DMSO, and subsequently diluted with water to make a 2 mM stock stored at 4° C. Volumes of 2 mM stock lipopeptide ranging from 2 μl to 15 μl were diluted in 500 μl of DDME. 1 μg of plasmid pSVLCAT was separately diluted in 500 μl of DDME. Solutions were combined for 10-20 min at room temperature before adding to 500 μl of DDME in 60 mm dishes of subconfluent CHO cells (2×10^5 day-1) or Cos 1 cells (5×10^5 day-1); washed free of serum with DDME.
(§3) Cells were incubated for 6 hrs under standard conditions of 37° C. and 5% CO2 for 6 hours. 1.5 ml of DME/Hams+10% FCS (CHO) or DME+10% FCS (Cos 1) was added to the cells for overnight incubation. Fresh DME/Hams+10% FCS or DME+10% FCS was used to replace the medium for a further 24 hours prior to harvest. Cell lysates were prepared and assayed for CAT activity as described above. For Cos 1 cells, culture supernatants were assayed for CAT activity.
For transfection of pSVLCAT and subsequent assay of CAT enzyme, experiments "a" and "b" were carried out as described above.

[2] = system: CHO cells; experiment: Transfection of pSVLCAT, CAT assay, CHO; format: cell-based, Chinese Hamster; settings: for Transfection (CAT): Table 1, CHO, optimised level of agent
Method: Protocol was the same for Verafectin and Transfectam (see above) with the exception that 0.5 μg of pSVLCAT DNA was used /60 mm dish.
Lipofectamine protocol was according to manufacturer's instructions. 0.5 μg pSVLCAT/60 mm dish. CHO cells seeded 1×10^5 /60 mm dish and adhered overnight in DME/Hams medium with 10% FCS.
Transfectam 5 or 10 μl 1mg/400 μl stock solution.
Lipofectamine 5 or 10 μl 2 mg/ml (mixed formulation 3:1 with DOPE). VerafectinA3 (K3ATP3) and VerafectinG2 (K3G[Glycine]TP2) each at 5, 10 and 15 μl of 2 mM (2.8 and 2.3 mg/ml respectively) stock.
The serum free incubation period in the presence of test agents and DNA was 6 hours, then 1 ml DME/Hams+10% FCS was added. At 24 hrs the medium was changed to 2 ml of fresh DME/Hams+10% FCS until harvest at 48 hrs.
as §1, §2, §3
a. Using the standard transfection procedure described above, and 1 μg plasmid pSVLCAT, these formulations were tested on CHO cells at a single concentration equivalent to 10 μl of Verafectin A2 (2 mM) per sample and compared to unformulated compound and Lipofectamine in the same cell type. CAT production was assayed 48 hours after transfection.

[3] = "x" peptide experiment b, Cos 1
[4] = "x" peptide experiment a, CHO, 25 μl lysate, 20 min assay at 37° C., optimal level

For `CCCCCCCCCCCCCCCC(=O)OCC(CO)(COC(=O)CCCCCCCCCCCCCCC)NC(=O)[C@H](C)NC(=O)[C@@H](N)CCCCN` [K1ATP2], the “CAT activity (mean)” value [1, 3] was 12670 cpm.
For `CCCCCCCCCCCCCCCC(=O)OCC(CO)(CO)NC(=O)[C@H](C)NC(=O)[C@H](CCCCN)NC(=O)[C@@H](N)CCCCN` [K2ATP1], the “transfection, number of palmitates” value [1] was “very inefficient”.
For `CCCCCCCCCCCCCCCC(=O)OCC(CO)(COC(=O)CCCCCCCCCCCCCCC)NC(=O)[C@H](C)NC(=O)[C@H](CCCCN)NC(=O)[C@@H](N)CCCCN` [K2ATP2], the “transfection with second lysine relative to single K” value [1, 3] was about 5 times, the “CAT activity (mean)” value [1, 3] was 62,215 cpm and the “transfection, linkers A and L compared” value ([1]; "y" linker experiment b, Cos 1) was “very similar activities”. For the same molecule, the “CAT activity (mean)” value [2, 4] was 5418 cpm.
In the case of `CCCCCCCCCCCCCCCC(=O)OCC(COC(=O)CCCCCCCCCCCCCCC)(COC(=O)CCCCCCCCCCCCCCC)NC(=O)[C@H](C)NC(=O)[C@H](CCCCN)NC(=O)[C@@H](N)CCCCN` [K2ATP3], the “transfection, number of palmitates” value [1] is reported as “high levels of transfection”.
`CCCCCCCCCCCCCCCC(=O)OCC(CO)(COC(=O)CCCCCCCCCCCCCCC)NC(=O)[C@H](CCCCN)NC(=O)[C@H](CCCCN)NC(=O)[C@@H](N)CCCCN` [K2KTP2] was tested, and the “transfection, dipalmitate versus tripalmitate” value ([1]; R1-R4 experiment d, Cos 1, lysine linker) was “significantly less active than the tripalmitate molecule”.
For `C[C@H](NC(=O)[C@H](CCCCN)NC(=O)[C@H](CCCCN)NC(=O)[C@@H](N)CCCCN)C(=O)NC(CO)(CO)CO` [K3ATP0] (H-KKKA-{NHC(CH2OH)3}), the “Transfection (CAT)” value [1] was “-”.
For `CCCCCCCCCCCCCCCC(=O)OCC(CO)(COC(=O)CCCCCCCCCCCCCCC)NC(=O)[C@H](C)NC(=O)[C@H](CCCCN)NC(=O)[C@H](CCCCN)NC(=O)[C@@H](N)CCCCN` [K3ATP2, trilysine alanine tris dipalmitate], the “Transfection (CAT)” value [1] was “+/-”, the “CAT levels relative to Lipofectamine, non-liposome formulation” value ([2]; CHO, unformulated) was “around 5%” and the “CAT activity (mean)” value ([2]; R1-R4 experiment e, CHO) was 984 cpm. For the same molecule, the “Transfection (CAT)” value [2] was “+/-”.
`NCCCC[C@H](NC(=O)[C@H](CCCCN)NC(=O)[C@@H](N)CCCCN)C(=O)NCC(=O)NC(CO)(CO)CO` [K3GTP0] (H-KKKG-{NHC(CH2OH)3}) was tested, and the “Transfection (CAT)” value [1] was “-”.
`CCCCCCCCCCCCCCCC(=O)OCC(CO)(CO)NC(=O)CNC(=O)[C@H](CCCCN)NC(=O)[C@H](CCCCN)NC(=O)[C@@H](N)CCCCN` [K3GTP1] (H-KKKG-X1) was tested, and the “Transfection (CAT)” value [1] was “+” and the “Transfection (CAT)” value [2] was “+”.
`CCCCCCCCCCCCCCCC(=O)OCC(COC(=O)CCCCCCCCCCCCCCC)(COC(=O)CCCCCCCCCCCCCCC)NC(=O)CNC(=O)[C@H](CCCCN)NC(=O)[C@H](CCCCN)NC(=O)[C@@H](N)CCCCN` [K3GTP3] (H-KKKG-{NHC(CH2O-Palmitoyl)3}) was tested, and the “Transfection (CAT)” value [1] was “+/-” and the “Transfection (CAT)” value [2] was “+”.
For `CCCCCCCCCCCCCCCC(=O)OCC(CO)(COC(=O)CCCCCCCCCCCCCCC)NC(=O)[C@H](C)NC(=O)[C@H](CCCCN)NC(=O)[C@H](CCCCN)NC(=O)[C@H](CCCCN)NC(=O)[C@@H](N)CCCCN` [K4ATP2] (H-KKKKA-X5), the “Transfection (CAT)” value [1] was “+”.
With `CCCCCCCCCCCCCCCC(=O)OCC(CO)(COC(=O)CCCCCCCCCCCCCCC)NC(=O)[C@H](C)NC(=O)[C@H](CCCCN)NC(=O)[C@H](CCCCN)NC(=O)[C@H](CCCCN)NC(=O)[C@H](CCCCN)NC(=O)[C@@H](N)CCCCN` [K5ATP2] (H-KKKKKA-X5) the “CAT activity (mean)” value [2, 4] was 132 cpm.
In the case of `CCCCCCCCCCCCCCCC(=O)OCC(COC(=O)CCCCCCCCCCCCCCC)(COC(=O)CCCCCCCCCCCCCCC)NC(=O)[C@H](C)NC(=O)[C@H](CCCCN)NC(=O)[C@H](CCCCN)NC(=O)[C@H](CCCCN)NC(=O)[C@H](CCCCN)NC(=O)[C@@H](N)CCCCN` [K5ATP3] (H-KKKKKA-{NHC(CH2O-Palmitoyl)3}), the “CAT activity (mean)” value [2, 4] is reported as 1785 cpm and the “mean level of CAT activity” value ([2]; "x" peptide experiment c, CHO, 2 hours incubation of 20 μl lysate) is reported as 6363.
